Assay results: PMC3944410 (Anesthesiology, 2014)
Where “and” joins values, the source holds several entries; their conditions need not be identical. Equal entries are not always repeated.

Tests used:
[1] = target: recombinant human kappa opioid receptor (Homo sapiens, UniProt P41145); test: biochemical; conditions: IC50 of inhibition of agonist-induced G protein activation
[2] = cited from earlier work
[3] = 10 mg of dezocine, postoperative patients (n=187); cited from earlier work

Chain of recombinant human kappa opioid receptor (P41145 whole entry): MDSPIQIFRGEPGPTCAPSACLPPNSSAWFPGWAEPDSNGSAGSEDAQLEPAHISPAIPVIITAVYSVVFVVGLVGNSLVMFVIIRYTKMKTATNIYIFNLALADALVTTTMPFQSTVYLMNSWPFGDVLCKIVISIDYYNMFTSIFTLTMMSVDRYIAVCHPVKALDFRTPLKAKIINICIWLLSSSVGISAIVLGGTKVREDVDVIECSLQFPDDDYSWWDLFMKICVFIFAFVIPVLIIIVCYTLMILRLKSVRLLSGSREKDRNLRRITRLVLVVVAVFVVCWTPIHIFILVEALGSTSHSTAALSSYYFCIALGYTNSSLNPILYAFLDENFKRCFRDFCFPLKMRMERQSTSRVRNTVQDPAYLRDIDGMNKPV

Compound: C[C@@]12CCCCC[C@@H](Cc3ccc(O)cc31)[C@@H]2N [dezocine]
- IC50 [1]: ~350 nM and ~800 nM
- decrease of anesthetic requirement [2]: up to 50%
- analgesic activity compared with meperidine [3]: same analgesic activity as 50 mg of meperidine
